Measurements from US6379959B1, “Metalocarboxypeptidase inhibitors and derived molecules used as antitumor agents” (Universitat Autonoma de Barcelona, priority 1996, dated 2002).
Like-named read-outs stand apart in the source and are kept apart here.

How the values were obtained:
[1] = system: human pancreatic adenocarcinoma cell line Capan-1; assay: Apoptosis by DAPI labeling and fluorescence microscope; format: cell-based; conditions: positive control, 10 μg/mL, 24 h
Method: The studies of possible induction of apoptosis by the PCI were done with the human pancreatic adenocarcinoma cell line Capan-1. The detailed procedure that was employed is as follows:
1. 5×10^5 cells were seed in the chambers/slides and were cultured for 3 o 4 days (until the moment in which, through microscope observation, they presented 75% of confluence). The cells were cultured in DMEM+10% FBS.
2. […] A positive control was added, cysplatinum, at a concentration of 10 μg/mL (a drug which induces apoptosis in various tumor cell lines, Borner, M. M., et al. (1995) Cancer Res., 55: 2122-2128. The incubation period was 24 h.
3. The medium was removed after incubation and the chamber was washed with 2 mL of PBS.
5. Cells were fixed with 2 mL of 2% formaldehyde for 20 min at 4° C.
6. The plates were washed again with 2 mL of PBS for 5 min at room temperature.
7. Cell membranes were permeabilized with 0.25% Triton ×100 in PBS for 5 min at 4° C.
8. Washed with PBS for 5 min at room temperature.
9. The cells were labeled with DAPI at a final concentration of 2 μg/mL for 50 min in darkness at room temperature.
10. The preparation was fitted with the fluoroprep medium and it was examined through the fluorescence microscope.
% apoptosis=(number of apoptotic cells/total number of cells)×100

[2] = system: human pancreatic adenocarcinoma cell line Capan-1; format: cell-based; conditions: SFM, 72 h
Method: Other kinds of tests were also carried out, the cells growing in serum-free medium as well; these were studies at short periods of time, 72 h, and of competitiveness with a growth factor plus wtPCI, PCIdelYVG or tail. […] The protocol employed was as follows:
1. In a culture plate of 96 wells, in 42 of which 5,000 cells per well were seed. The cells were placed in full medium (DMEM+10%FBS).
2. After 72 h, once the adhesion of the cells to the surface of the well had taken place, as well as their division, the medium was removed from the wells and to eliminate the remainder of the serum, 200 μL of PBS were added to each well.
3. The PBS was removed and 200 μL of DMEM-FBS were added.
4. After 24 h, the medium was removed and the following treatments were applied:
(§1) In 6 wells (control): 200 μL of serum-free medium (SFM) were added.
200 μL of SFM plus the indicated concentration of one of the growth factors and wtPCI were added in 6 wells at a final concentration of 50 μg/mL.
In 6 wells, 200 μL of SFM plus the indicated concentration of one of the growth factors and PCIdelYVG were added at a final concentration of 46 μg/mL. […]
4. Cells were kept in an incubator at 37° C., 87% of relative humidity and 10% of CO2.
5. After 72 h, the cellular growth per well was evaluated using the method detailed in the protocol of Section 4.B.2.a.

[3] = system: human pancreatic adenocarcinoma cell line Panc-1; format: cell-based; conditions: SFM, 72 h
Method: The tests that were carried out growing in free bovine fetal serum medium were very similar to those used in the line Capan-1 described in Section 4.B.2.b. The protocol employed is as follows:
1. A culture plate with 96 wells, in 42 of which 5,000 cells were seed per well. The cells were placed in full medium (RPMI+10%FBS).
2. After 48 h, after the cells had adhered to the surface of the well and they had divided as well, the medium was drained from the wells and to eliminate the rest of the serum, 200 μL of PBS were added to each well.
3. The PBS was removed and 200 μL of RPMI-FBS were added.
4. After 48 h, the medium was removed and the following treatments were applied:
as §1
In 6 wells, 200 μL of SFM plus the indicated concentration of one of the growth factors and wtPCI at a final concentration of 50 μg/mL were added.
In 6 wells, 200 μL of SFM plus the indicated concentration of one of the growth factors and PCIdelYVG at a final concentration of 46 μg/mL were added.
In 6 wells, 200 μL of SFM plus the indicated concentration of one of the growth factors and tail at a final concentration of 6.4 μg/mL were added.
In 6 wells, 200 μL of SFM plus the indicated concentration of one of the growth factors and wtPCI at a final concentration of 50 μg/mL combined with tail at a final concentration of 6.4 μg/mL were added.
In 6 wells, 200 μL of SFM plus the indicated concentration of one of the growth factors and PCIdelYVG at a final concentration of 46 μg/mL combined with tail at a final concentration of 6.4 μg/mL were added.
The cells were kept in an incubator at 37° C., 87% of relative humidity and 10% of CO2.
5. After 72 h, the cell growth per well was evaluated using the method detailed in the protocol of Section 4.B.2.a.

[4] = target: T1, carboxypeptidase (Bos taurus, UniProt P00730); assay: Carboxypeptidase inhibiting effect; format: biochemical
T1 sequence (P00730 111-419): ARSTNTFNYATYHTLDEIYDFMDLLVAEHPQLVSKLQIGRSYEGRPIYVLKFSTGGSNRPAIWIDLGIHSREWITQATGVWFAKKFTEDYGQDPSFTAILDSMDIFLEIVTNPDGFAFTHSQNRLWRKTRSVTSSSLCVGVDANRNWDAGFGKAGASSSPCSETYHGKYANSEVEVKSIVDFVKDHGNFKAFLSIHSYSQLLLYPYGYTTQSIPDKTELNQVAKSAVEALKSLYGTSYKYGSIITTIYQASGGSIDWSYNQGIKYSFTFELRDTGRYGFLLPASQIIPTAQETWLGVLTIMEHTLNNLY
Method: All the buffers employed in HPLC and FPLC are prepared employing Mono-Q water and are filtered through membranes of 0.22 μm and degassed immediately before use. The HPLC, as well as the FPLC, are done at room temperature. The process of purification is done by determining the global concentration of proteins after each step using the Bradford method; the concentration of recombinant PCI is evaluated by measuring its inhibitory effect of CPA using appropriate blanks; or, in the case of PCI mutants with little or zero carboxypeptidase activity, by ELISA with rabbit polyclonal antibodies against PCI.
To determine whether the inhibiting effect on cellular growth of the PCI is related to its carboxypeptidase inhibiting effect or with its specific knotin topology, tests of cellular inhibition with a mutant form were carried out. Concretely, the deletion of the three C-terminal amino acids was designed resulting in the form PCIdelY37V38G39 (or PCIdelYVG). This form was designed and constructed because it keeps the structure and the topology of wild PCI. This is inferred from the fact that it presents a similar chromatographic behaviour to that of the wild form and that it can be detected by antibodies antiwtPCI. Also by means of computer simulation (by molecular dynamics using the GROMOS programme) it presented a similar behaviour to the wild form after 300 ps of dynamics.

[5] = system: human pancreatic adenocarcinoma cell line Capan-1; conditions: serum-free medium, 16 days
Method: Two kinds of tests were carried out; the first one is the treatment of cells of the human pancreatic adenocarcinoma cell line Capan-1 with wtPCI and tail added to the culture medium in absence of serum.
In a culture plate with 96 wells, 5,000 cells were seed per well, in 24 of them. The cells were placed in full medium (DMEM+10%FBS).
In 6 wells (control): 200 μL of serum-free medium (DMEM-FBS) and free of tail were added.
200 μL of serum-free medium with 50 μg/mL of native PCI were added.
In 6 wells, 200 μL of serum-free medium with 0.128 μg of tail/mL were added.
In 6 wells, serum-free medium with 6.4 μg of tail/mL was added.
The medium contained in the wells was changed every 3-4 days. The old medium was sucked out using a Pasteur pipette.
After 16 days, the cell growth per well was evaluated according to the method detailed in the protocol of Section 4.B.2.a.

[6] = system: human pancreatic adenocarcinoma cell line Panc-1; format: cell-based; conditions: SFM, 72 h; remark: listed apart in the source
[7] = system: human pancreatic adenocarcinoma cell line Panc-1; assay: Proliferation test with tetrazolium salts, Panc-1 in medium with serum, 10 days; format: cell-based
Method: It was performed the same kind of test which had been carried out for the Capan-1 cell line but with Panc-1, another human pancreatic adenocarcinoma cell line. We are referring to a human pancreatic adenocarcinoma ATCC nr. CRL 1469, established by Lieber, M. et al. (1975) In. J. Cancer, 15: 741-747. Of ductal origin, it is not highly differentiated.
As for the Capan-1 cell line, two types of experiments were carried out with and without bovine fetal serum. The protocol followed for the test, growing in RPMI plus bovine fetal serum, was the same as that used with Capan-1 cell line but with small variations, given the difference in the duplication times between the two lines. The tests were carried out with the native PCI (wtPCI) and with the mutant PCI (PCIdelYVG). The protocol is detailed as follows:
1. In a culture plate with 96 wells, 2,000 cells were seed in 30 wells for the tests with wtPCI and in 36 for the tests with PCIdelYVG. From these 30 or 36:
In 6 wells (control), 200 μL of full medium (RPMI+10%FBS) without wtPCI or PCIdelYVG/mL were added. […]
2. The cells were kept in an incubator at 37° C., 87% of relative humidity and 10% of CO2. The old medium was sucked out with a Pasteur pipette. Medium free of wtPCI or PCIdelYVG was added to the control wells and to the others a medium was added with identical concentration of wtPCI or PCIdelYVG.
3. After 10 days, the cell growth was evaluated per well, according to the method detailed in the protocol of Section 4.B.2.a.

[8] = system: Panc-1 cells; assay: Internalization studies by means of fluorescence (RITC labeling), Panc-1; format: cell-based, human; conditions: accumulation around the nucleus
Method: In fluorescence studies, the possible internalization of PCI, labeled with a fluorophore, by Capan-1 and Panc-1 cell lines was followed by microscope observation.
In the incorporation studies of the RITC-PCI, the protocol of Billings, P. C. et al. (1989) Carcinogenesis, 10: 687-691, slightly modified, was followed:
1. 200,000 cells of the cell line to be studied were placed in culture chambers/slides and were left there to grow for 48 h.
2. The medium of the cells growing in exponential phase was changed and 20 or 50 μg/mL of RITC-PCI were added to the new medium, keeping it in the medium for a variable incubation time ranging from 1 minute to 4 h inside the incubator.
3. The medium was retired after the incubation and the monolayer of the cells was washed with PBS for 10 min in darkness.
4. The cells were fixed with 350 μl of a solution 50% methanol—50% acetone for 8 min at 4° C. in a dark and humid chamber.
5. The cells were washed again with PBS for 10 min in darkness.
6. The preparations were dried with absorbing paper being very careful not to touch the cells. The preparations were fitted with PBS: Glycerol (1:1) and were sealed with nail polish.
The labeling protocol was exactly the same as that of the wild PCI, as described in Section 4.F.1.b. The studies of incorporation of the labeled mutant were carried out as described in Section 4.F.1.c.

[9] = Insulina 5 mg/mL + 6.4 mg/mL tail
[10] = EGF 10 ng/mL + 46 mg/mL PCIdelYVG
[11] = Insulin 5 mg/mL + 46 mg/mL PCIdelYVG

## N.N.[Cl][Pt][Cl] [cysplatinum, reference compound]
[1]
  % Apoptosis: 5.19%

## EGF: epidermic growth factor [reference compound]
[2]; EGF 10 ng/mL alone
  Growth (Percentage in relation to the average of the controls): 106.66%
[2]; EGF alone, at the tested concentration (10 ng/mL)
  growth in relation to the control situation: no differences in relation to the control situation
[3]; EGF 10 ng/mL alone
  Growth (Percentage in relation to the average of the controls): 63.52%
[3]; EGF alone, in the tested concentration (10 ng/mL)
  inhibition in relation to the control situation: 36%

## H-GPYVG-OH [tail, H-Gly-Pro-Tyr-Val-Gly-OH]
[2]; EGF 10 ng/mL + 6.4 mg/mL tail
  Growth (Percentage in relation to the average of the controls): 28.33%
[2]; [9]
  Growth (Percentage in relation to the average of the controls): 52.58%
[4]
  carboxypeptidase inhibitory activity: lacks carboxypeptidase inhibitory activity
[5]; 0.128 mg/mL tail
  Growth (Percentage in relation to the average of the controls): 81.95%
[5]; 6.4 mg/mL tail
  Growth (Percentage in relation to the average of the controls): 77%
[6]; EGF 10 ng/mL + 6.4 mg/mL tail
  Growth (Percentage in relation to the average of the controls): 16.23%
[6]; [9]
  Growth (Percentage in relation to the average of the controls): 24.84%

## IGF-1: growth factor 1 of the insulin type [reference compound]
[2]; IGF-1 alone (20 ng/mL)
  stimulation in relation to the control: 58%
[3]; IGF-1 alone (20 ng/mL)
  stimulation in relation to control: 26%

## Insulin: growth factor used to stimulate proliferation [reference compound]
[2]; Insulin 5 mg/mL alone
  Growth (Percentage in relation to the average of the controls): 292.86%
[2]; insulin alone (5 μg/mL)
  stimulation in relation to the control: 193%
[3]; Insulin 5 mg/mL alone
  Growth (Percentage in relation to the average of the controls): 193.47%
[3]; insulin alone (5 μg/mL)
  stimulation in relation to control: 93%

## PCIdelYVG: recombinant PCI mutant with deletion of the three C-terminal amino acids Tyr-Val-Gly (EQHADPICNKPCKTHDDCSGAWFCQACWNSARTCGP; Potato; (1)..(39) Isoform IIa of the potato carboxypeptidase inhibitor)
[2]; [10]
  Growth (Percentage in relation to the average of the controls): 40.83%
[2]; [11]
  Growth (Percentage in relation to the average of the controls): 44.60%
[7]; 46 μg/mL concentration
  inhibition of the growth: 15%
[7]; 0.092 mg/mL PCIdelYVG, RPMI+10%FBS
  Growth (Percentage in relation to the average of the controls): 112.92%
[7]; 0.92 mg/mL PCIdelYVG
  Growth (Percentage in relation to the average of the controls): 105.43%
[7]; 23 mg/mL PCIdelYVG
  Growth (Percentage in relation to the average of the controls): 94.85%
[7]; 46 mg/mL PCIdelYVG
  Growth (Percentage in relation to the average of the controls): 85.51%
[7]; concentration 0.092 μg/mL
  stimulus of the growth: 13%
[8]
  incorporation of RITC-labeled mutant by the cells: is incorporated by the cells
[4]
  Ki: micromolar level
[4]; compared with wild PCI
  decrease of the inhibitory capacity: 3 orders of magnitude
[6]; [10]
  Growth (Percentage in relation to the average of the controls): 5.53%
[6]; [11]
  Growth (Percentage in relation to the average of the controls): 21.41%
